Structures are written as SMILES. Values joined by “and” are separate entries in the source; they are usually repeats but may differ in a detail not shown here. Equal values may be shown once.

What all share (type): physicochemical
Data set [1] is described as follows: Measurement of content ratio of compound represented by Formula (III) contained in solution; increase during crystallization operation (Test Example 3). As to conditions: for Total amount of the content ratio of compound represented by Formula (III) contained in the filtrate after filtration and the obtained crystal: after crystallization; for Content ratio of compound represented by Formula (III) in the solution before crystallization: reaction solution / dissolved anhydrate crystal; for Increased amount of content ratio of compound represented by Formula (III) during crystallization operation: total in filtrate and crystal minus solution before crystallization. The protocol:
The content ratio of the compound represented by Formula (JII) in the solution in the production method of Example 1 was determined by the following method.
In Example 4 and Reference Examples 2 to 3, the content ratio was determined in the same manner.
(§1) A standard sample of the compound represented by Formula (III) was prepared by the following method. • Step 1: About 25 mg of the compound represented by Formula (III) was weighed precisely, and dissolved in a mixed solution of N,N-dimethylformamide and water (9:1) to make exactly 20 mL. • Step 2: One milliliter of the solution of Step 1 was accurately taken, and a mixed solution of N,N-dimethylformamide and water (9:1) was added to make exactly 50 mL. • Step 3: Two milliliters of the solution of Step 2 was accurately taken, and a mixed solution of N,N-dimethylformamide and water (9:1) was added to make exactly 20 ml, thereby obtaining a standard solution. (Preparation of Sample Solution)
About 60 to 1300 mg of a sample was weighed precisely, and dissolved by adding a mixed solution of N,N-dimethylformamide and water (9:1) to make exactly 5 mL.
(§2) An amount of the compound represented by Formula (III) was measured with a liquid chromatograph according to the following method and conditions. • Measuring instrument: UHPLC (NexeraX2, SHIMADZU) • Detector: UV • Measurement wavelength: 271 nm • Column: ACQUITY UPLC BEH SHIELD PF18, 1.7 μm (2.1×100 mm) • Column temperature: constant temperature at near 40° C. • Mobile phase A: 20 mmol/L potassium dihydrogen phosphate aqueous solution • Mobile phase B: acetonitrile for liquid chromatography • Feed of mobile phase: The mixing ratio of mobile phase A and mobile phase B was changed as shown in Table 2 to control concentration gradient.
(§3) • Flow rate: 0.3 mL/min • Injection amount: 2 μL • Sample cooler temperature: 5° C. • Area measurement range: 11 minutes after injection • Needle washing solution: mixed solution of N,N-dimethylformamide and water (9:1) (Calculation formula) Content (ppm) of compound represented by Formula(III)=MS/MT×AT/AS×1/2000×YT/YS×1000000 (Mathematical formula 3) • MS: Weighing amount (mg) of compound represented by Formula (III) • MT: Weighing amount (mag) of sample • AS: Peak area of compound represented by Formula (III) obtained from standard solution • AT: Peak area of compound represented by Formula (III) obtained from sample solution • YS: Yield (g) of compound represented by Formula (I) • YT: Total weight (g) of sample • 1/2000: Dilution ratio

Data set [2] can be described thus: Measurement of content ratio of compound represented by Formula (III) contained in crystal (Test Example 1). As to conditions: crystal as produced. As for the experimental part: The content ratio of the compound represented by Formula (III) in the dihydrate crystal of the compound represented by Formula (I) produced in Example L was determined by the following method.
In Examples 1 to 4 and 6 and Reference Examples 1 to 2, the content ratio was determined in the same manner.
as §1, with “following method,” for “following method.”, “[…]” for “25 mg”, “20 mL,” for “20 mL.”, “20 mL,” for “20 ml,”
About 125 to 600 mg of a sample was weighed precisely, and dissolved by adding a mixed solution of N,N-dimethylformamide and water (9:1) to make exactly 5 mL.
as §2, with “SHIELD PR18,” for “SHIELD PF18,”, “Table 1” for “Table 2”
as §3, with “amount” for “amount:”, “Formula)” for “formula)”, “Formula(III)=MS/MT×AT/AS×1/2000×1000000” for “Formula(III)=MS/MT×AT/AS×1/2000×YT/YS×1000000”, “4)” for “3)”, “(mg)” for “(mag)”, “•” for “• YS: Yield (g) of compound represented by Formula (I) • YT: Total weight (g) of sample •”

Data set [3] is described as follows: 90% particle size distribution of bead mill wet-pulverized product, Mastersizer 2000 (Test Example 5). As to conditions: Mastersizer 2000, SDS aqueous dispersion. The protocol: The obtained slurry was wet-pulverized with a bead mill (DYNO-MILL nanodisperser research lab type, Willy A. Bachofen AG) and then filtered to obtain an anhydrate crystal (90% particle size distribution: 2.791 μm) of the compound represented by Formula (I). The 90% particle size distribution was measured by the method described in Test Example 5.
A 90% particle size distribution was measured according to the following method and conditions. • Measuring instrument: particle size distribution measuring apparatus (Mastersizer 2000, Malvern Panalytical Ltd) • Dispersion solvent: 0.1 g of sodium dodecyl sulfate (SDS) was dissolved in 1 L of water • Rotation speed: 2500 rpm • Ultrasound: 50% • Slurry concentration: adjusted between 10 to 20%

Data set [4] can be described thus: 90% particle size distribution, laser diffraction HELOS & RODOS (Test Example 2). As to conditions: dispersion pressure 4 bar. As for the experimental part: A 90% particle size distribution in the production method of Reference Example 1 was determined by the following method.
In Examples 1 to 6 and Reference Example 3, the 90% particle size distribution was determined in the same manner.
A 90% particle size distribution was measured according to the following method and conditions. • Measuring instrument: laser diffraction particle size distribution measuring apparatus (HELOS & RODOS, Sympatec GmbH) • Dispersion pressure: 4 bar • Feed: 50% • Rotation: 20% • Focal length: 50 mm • Trigger condition: reference duration 2 seconds • Time Base 100 ms • Start Optical concentration ≥1.0% • Stop Optical concentration ≤1.0% • Measurement range: R2

Data set [5] in a line: Stability testing of wet-kneaded vs untreated dry-pulverized product (Test Example 7). As for the experimental part: A standard sample of 5 ng/mL (corresponding to 5 ppm with respect to the sample solution) of the compound represented by Formula (ITI) was prepared by the following method. Step 1: About 20 mg of the compound represented by Formula (III) was weighed precisely, and a mixed solution of acetonitrile and water (4:1) was added to dissolve the compound to make exactly 100 mL. Step 2: One milliliter of the solution of Step 1 was accurately taken, and a mixed solution of acetonitrile and water (4:1) was added to make exactly 100 mL. Step 3: One milliliter of the solution of Step 2 was accurately taken, and a mixed solution of acetonitrile and water (4:1) was added to make exactly 100 mL. Step 4: Five milliliters of the solution of […] was accurately taken, and a mixed solution of acetonitrile and water (4:1) was added to make exactly 20 mL, thereby obtaining a standard solution. Step 1: A sample in an amount corresponding to 50 mg of the compound represented by Formula (I) or the like was added to a 50 mL volumetric flask. Step 2: To Step 1 was added 10 mL of water, and the mixture was irradiated with ultrasonic waves for 10 minutes to disintegrate the sample completely. The ultrasonic irradiation time was extended as necessary. Step 3: To Step 2 was added 25 mL of acetonitrile, and the mixture was irradiated with ultrasonic waves for 30 minutes. Step 4: After cooling, acetonitrile was added to make exactly 50 mL, a part of the liquid was centrifuged at 13000 rpm for 10 minutes, and the supernatant was used as a sample solution. An amount of the compound represented by Formula (III) was measured with a liquid chromatograph according to the following method and conditions. • Measuring instrument: LC/MS/MS (PM No. AES676) manufactured by Agilent Technologies, Inc. • Column: L-column 24.6×150 mm, 3 μm • Column temperature: constant temperature at near 35° C. • Mobile phase A: 10 mM ammonium acetate • Mobile phase B: acetonitrile for liquid chromatography • Feed of mobile phase: The mixing ratio of mobile phase A and mobile phase B was changed as shown in Table 14 to control concentration gradient. • Post runtime: 5 minutes • Flow rate: 0.5 mL/min (retention time of S202AA: about 9 minutes) • Injection amount: 5 μL • Sample cooler temperature: constant temperature at near 10° C. • Needle washing solution: acetonitrile for liquid chromatography • Ionization method: ESI • Scan type: MEM • Polarity: positive • Precursor ion: m/z=187.2 • Product ion: m/z=64.9 • Fragmentor: 120 • Collision energy: 33 • Capillary: 4000 V • Gas temperature: 350° C. • Gas flow rate: 12 L/min • Nebulizer: 40 psi • MS uptake time: 0 to 12 minutes (Calculation Formula) Content (ppm) of compound represented by Formula(III)=MS×P/100×(100−WS)/100×AT/AS×1/50×1/80000×1000000 (Mathematical formula 6) • MS: Weighing amount (mg) of compound represented by Formula (III) • P: Purity (%) of compound represented by Formula (III) • WS: Moisture (%) of compound represented by Formula (JII) • AS: Peak area of compound represented by Formula (III) obtained from standard solution • AT: Peak area of compound represented by Formula (III) obtained from sample solution (Results)

The nature of data set [6]: Stability testing, study of stabilizer / blending property test (Test Example 9). The protocol: A blending property test was performed on the compound represented by Formula (I) or the like and an additive, and the amount of the compound represented by Formula (III) in the product stored over time was evaluated. The sample and additive used in Reference Example 4 were weighed and mixed uniformly with a mortar and a pestle. An appropriate amount of purified water was added to the mixture, and wet kneading was performed with a pestle. The resulting granulated product was sieved with a 20-mesh wire mesh, and dried at an aeration temperature of 60° C. for 30 minutes in an aeration dryer (TH-80, SATAKE CHEMICAL EQUIPMENT MFG., LTD.). Thereafter, the resulting product was further sieved with a 20-mesh wire mesh to obtain samples of Examples 10 to 14.
The samples of Examples 10 to 14 were subjected to a stability testing under a condition of 60° C. glass bottle closed (referred to as 60° C. closed in Table 17) and 40° C. glass bottle closed (referred to as 40° C. closed in Table 17) to evaluate the content of the compound represented by Formula (III).
The content of the compound represented by Formula (II) was confirmed in the same manner as in Test Example 7.

Setting [7] is: 40° C. glass bottle closed, 1 month.
The mark [8] stands for this setting: 40° C. glass bottle closed, 2 weeks.
Where [9] appears, read: 40° C. glass bottle closed, 3 months.
[10] abbreviates: 60° C. glass bottle closed, 2 weeks.

As to `C[C@@H](Cn1c(=O)[nH]/c(=N\c2ccc(Oc3ccccn3)cc2)n(Cc2ccc(Cl)cc2)c1=O)C(=O)O` [Reference Example 2], in data set [1], the “Total amount of the content ratio of compound represented by Formula (III) contained in the filtrate after filtration and the obtained crystal” value is given as 316.7 ppm; the “Content ratio of compound represented by Formula (III) in the solution before crystallization” value turned out to be 178.9 ppm. In data set [2], the “Content ratio of compound represented by Formula (III) in the obtained crystal” value was 1.3 ppm and 1.30 ppm.

On to `C[C@@H](Cn1c(=O)[nH]/c(=N\c2ccc(Oc3ccccn3)cc2)n(Cc2ccc(Cl)cc2)c1=O)C(=O)O` [Example 4], for which the “Increased amount of content ratio of compound represented by Formula (III) during crystallization operation” value in data set [1] is 8.7 ppm. The “Content ratio of compound represented by Formula (III) in the obtained crystal” value in data set [2] was 1.30 ppm.

`C[C@@H](Cn1c(=O)[nH]/c(=N\c2ccc(Oc3ccccn3)cc2)n(Cc2ccc(Cl)cc2)c1=O)C(=O)O` [Example 7]: the “90% particle size distribution” value in data set [3] was found to be 2.791 μm.

Consider `C[C@@H](Cn1c(=O)[nH]/c(=N\c2ccc(Oc3ccccn3)cc2)n(Cc2ccc(Cl)cc2)c1=O)C(=O)O` [Reference Example 3], for which, in data set [1], the “Total amount of the content ratio of compound represented by Formula (III) contained in the filtrate after filtration and the obtained crystal” value is reported as 252.5 ppm; the “Content ratio of compound represented by Formula (III) in the solution before crystallization” value amounted to 82.0 ppm; the “Increased amount of content ratio of compound represented by Formula (III) during crystallization operation” value was determined as 170.5 ppm. For the same compound, the “90% particle size distribution” value in data set [4] was found to be 169.84 μm.

In the case of `C[C@@H](Cn1c(=O)[nH]/c(=N\c2ccc(Oc3ccccn3)cc2)n(Cc2ccc(Cl)cc2)c1=O)C(=O)O` [Reference Example 4], in data set [5] (setting [7]), the “Content of compound represented by Formula (III), 40° C. glass bottle closed 1M” value is on record as 17.2 ppm. The “Content of compound represented by Formula (III), 40° C. glass bottle closed 2W” value in data set [5] (setting [8]) came to 10.7 ppm. Further, in data set [5] (setting [9]), the “Content of compound represented by Formula (III), 40° C. glass bottle closed 3M” value amounted to 23.9 ppm. Besides, the “Content of compound represented by Formula (III), 40° C./75% RH glass bottle opened 1M” value in data set [5] (40° C./75% RH glass bottle opened, 1 month) worked out at 13.1 ppm. In addition, the “Content of compound represented by Formula (III), 40° C./75% RH glass bottle opened 2W” value in data set [5] (40° C./75% RH glass bottle opened, 2 weeks) was determined as 9.4 ppm. Moreover, the “Content of compound represented by Formula (III), 40° C./75% RH glass bottle opened 3M” value in data set [5] (40° C./75% RH glass bottle opened, 3 months) stood at 19.7 ppm. Also, the “Content of compound represented by Formula (III), 60° C. glass bottle closed 2W” value in data set [5] (setting [10]) worked out at 10.9 ppm. Further, the “Content of compound represented by Formula (III), Initial” value in data set [5] (start of test) is 3.0 ppm. In data set [6] (setting [7]), the “Amount of compound represented by Formula (III), 40° C. closed 1M” value is 17.2 ppm. Besides, the “Amount of compound represented by Formula (III), 40° C. closed 2W” value in data set [6] (setting [8]) is reported as 10.7 ppm. Also, in data set [6] (setting [9]), the “Amount of compound represented by Formula (III), 40° C. closed 3M” value stood at 23.9 ppm. For the same compound, in data set [6] (setting [10]), the “Amount of compound represented by Formula (III), 60° C. closed 2W” value is 10.9 ppm. For the same compound, the “Amount of compound represented by Formula (III), Initial” value in data set [6] (start of test) came to 3.0 ppm.

(Values after patent US12570627B2, “Pharmaceutical composition in which production of impurities is suppressed” (Shionogi & Co., Ltd., priority 2020, dated 2026).)
